Results reported in PMC8279492, “Quinolinonyl Non-Diketo Acid Derivatives as Inhibitors of HIV-1 Ribonuclease H and Polymerase Functions of Reverse Transcriptase” (Journal of Medicinal Chemistry, 2021).
Where two headings read alike, the source gives them in different places.

Columns and labels:
[1] = target: T1, HIV-1 RT-associated RNase H activity (Human immunodeficiency virus type 1 group M subtype B, UniProt P03366); assay: biochemical; assay type: biochemical
T1 construct: His-tagged p66/p51 HIV-1 RT group M subtype B; His; made in house; host or cells: Escherichia coli M15
Description: (11) and β-thujaplicinol (BTP) used as positive controls.
His-tagged p66/p51 HIV-1 RT group M subtype B coded in a p6HRT-prot plasmid was expressed in the Escherichia coli strain M15.[65] Heterodimeric RTs were expressed essentially and purified as described.[66]
The HIV-1 RT-associated RNase H activity was measured as described.[68] Briefly, the reaction was carried out in a black 96-well plate in a total volume of 100 μL. […] Experiments were performed in duplicate and replicated at least two times. Data were analyzed as described.[36]

HIV-1 IN = HIV-1 IN (Human immunodeficiency virus type 1 group M subtype B, UniProt P12497); assay: biochemical
Description: His-tagged NL4-3 IN was expressed from a pET15b plasmid in the E. coli BL21 pLys strain. Recombinant protein was purified as previously described[67] following a batch preparation on Ni-NTA beads (Qiagen, Paris, France).
Both oligonucleotides were purchased from Integrated DNA Technologies, Inc. (Coralville, IA), and the gel was purified in-house. ST reactions were performed by adding molecules or an equivalent volume of 100% dimethyl sulfoxide (DMSO, used as the drug solvent) to a mixture of 20 nM duplex DNA substrate and 400 nM IN in 50 mM MOPS pH 7.2, 7.5 mM MgCl2, and 14 mM 2-mercaptoethanol. Mixtures were incubated at 37 °C for 2 h, and the reaction was quenched by addition of an equal volume of loading buffer [formamide containing 1% sodium dodecyl sulfate (SDS), 0.25% bromophenol blue, and xylene cyanol]. […] Dried gels were visualized using a FLA5000 (Fuji Photo Film, Tokyo, Japan). Densitometric analyses were performed using ImageQuant 5.1 software from GE Healthcare.

HIV-1 replication = HIV-1 replication in HeLa-CD4-LTR-β-gal reporter cells; assay type: cell-based; settings: read-out: antiviral activity EC50
Description: (§1) HIV-1 replication was monitored using HeLa-CD4-LTR-β-gal reporter cells as previously described.[69] Briefly, β-galactosidase activity was monitored 24 h post infection using a replication-competent HIV produced in-house (H9-laï coculture) and a serial dilution of molecules or an equivalent volume of DMSO. In parallel, compounds’ toxicity was determined at 24 h in the same cell line using CellTiter 96 AQueous One Solution Cell Proliferation Assay (Promega, France).

[2] = Compounds' toxicity, CellTiter 96 AQueous One Solution Cell Proliferation Assay; assay type: cell-based; settings: human, HeLa-CD4-LTR-β-gal cells
Description: as §1

[3] = anti-RH activity (IC50 ± SD), HIV-1 RT-associated RNase H activity, dose-response curves, no preincubation
[4] = Human immunodeficiency virus 1, HeLa-CD4-LTR-β-gal cells, 24 h post infection
[5] = CC50 (cytotoxic concentration 50%), 24 h
[6] = Human immunodeficiency virus 1, 24 h
[7] = HIV-1 RT-associated RNase H activity, dose-response curves, no preincubation

SMILES: CCOC(=O)c1cn(Cc2ccc(F)cc2)c2ccc(C(F)(F)F)cc2c1=O [5c, Ethyl 1-(4-Fluorobenzyl)-4-oxo-6-(trifluoromethyl)-1,4-dihydroquinoline-3-carboxylate]
- IC50 [1, 3]: 59 ± 5 µM

SMILES: CN(C)CCCOc1ccc2c(c1)c(=O)c(C(=O)O)cn2Cc1ccc(F)cc1 [4j, 6-(3-(Dimethylamino)propoxy)-1-(4-fluorobenzyl)-4-oxo-1,4-dihydroquinoline-3-carboxylic Acid]
- IC50 [1, 3]: 15.4 ± 3 µM

SMILES: O=C(O)c1cn(Cc2ccc(F)cc2)c2ccc(O)cc2c1=O [4g, 1-(4-Fluorobenzyl)-6-hydroxy-4-oxo-1,4-dihydroquinoline-3-carboxylic Acid]
- IC50 [1, 3]: 74 ± 9 µM

SMILES: CCOC(=O)c1cn(Cc2ccc(F)cc2)c2ccc(C#N)cc2c1=O [5b, Ethyl 6-Cyano-1-(4-fluorobenzyl)-4-oxo-1,4-dihydroquinoline-3-carboxylate]
- IC50 [1, 3]: > 100 µM

SMILES: CCOC(=O)c1cn(Cc2ccc(F)cc2)c2ccc([N+](=O)[O-])cc2c1=O [5e, Ethyl 1-(4-Fluorobenzyl)-6-nitro-4-oxo-1,4-dihydroquinoline-3-carboxylate]
- IC50 [1, 3]: 47.8 ± 10 µM

SMILES: CCOC(=O)c1cn(Cc2ccc(F)cc2)c2ccc(S(C)(=O)=O)cc2c1=O [5f, Ethyl 1-(4-Fluorobenzyl)-6-(methylsulfonyl)-4-oxo-1,4-dihydroquinoline-3-carboxylate]
- IC50 [1, 3]: > 100 µM

SMILES: CCOC(=O)c1cn(Cc2ccc(F)cc2)c2ccc(O)cc2c1=O [5g, Ethyl 1-(4-Fluorobenzyl)-6-hydroxy-4-oxo-1,4-dihydroquinoline-3-carboxylate]
- IC50 [1, 3]: > 100 µM

SMILES: CCOC(=O)c1cn(Cc2ccc(F)cc2)c2ccc(OCCCN(C)C)cc2c1=O [5j, Ethyl 6-(3-(Dimethylamino)propoxy)-1-(4-fluorobenzyl)-4-oxo-1,4-dihydroquinoline-3-carboxylate]
- IC50 [1, 3]: > 100 µM

SMILES: O=C(O)c1cn(Cc2ccc(F)cc2)c2ccc(C(F)(F)F)cc2c1=O [4c, 1-(4-Fluorobenzyl)-4-oxo-6-(trifluoromethyl)-1,4-dihydroquinoline-3-carboxylic Acid]
- IC50 [1, 3]: > 100 µM

SMILES: CCOC(=O)c1cn(Cc2ccc(F)cc2)c2ccc(C(C)=O)cc2c1=O [5d, Ethyl 6-Acetyl-1-(4-fluorobenzyl)-4-oxo-1,4-dihydroquinoline-3-carboxylate]
- IC50 [1, 3]: 11 ± 1 µM
- IC50 (HIV-1 IN): > 100 µM
- EC50 (HIV-1 replication; [4]): > 50 µM
- CC50 at 24 h [2, 5]: > 200 µM
- CC50 at 24 h ([2]; supplement CSV, read-out: CC50): > 50 µM

SMILES: CCOC(=O)c1cn(Cc2ccc(F)cc2)c2ccc(OCc3ccc4ccccc4c3)cc2c1=O [5p, Ethyl 1-(4-Fluorobenzyl)-6-(naphthalen-2-ylmethoxy)-4-oxo-1,4-dihydroquinoline-3-carboxylate]
- IC50 [1, 3]: 19.6 µM
- EC50 (HIV-1 replication; [4]): > 50 µM
- CC50 at 24 h [2, 5]: 73 ± 24 µM
- CC50 at 24 h ([2]; supplement CSV, read-out: CC50): > 50 µM

SMILES: CCOC(=O)c1cn(Cc2ccc(F)cc2)c2ccc(OCc3ccc(OCc4ccccc4)cc3)cc2c1=O [5t, Ethyl 6-((4-(Benzyloxy)benzyl)oxy)-1-(4-fluorobenzyl)-4-oxo-1,4-dihydroquinoline-3-carboxylate]
- IC50 [1, 3]: > 100 µM

SMILES: O=C(O)c1cn(Cc2ccc(F)cc2)c2ccc(Oc3ccccc3)cc2c1=O [4i, 1-(4-Fluorobenzyl)-4-oxo-6-phenoxy-1,4-dihydroquinoline-3-carboxylic Acid]
- IC50 [1, 3]: 32 ± 11 µM

SMILES: CCOC(=O)c1cn(Cc2ccc(F)cc2)c2ccc(OCc3cccc4ccccc34)cc2c1=O [5o, Ethyl 1-(4-Fluorobenzyl)-6-(naphthalen-1-ylmethoxy)-4-oxo-1,4-dihydroquinoline-3-carboxylate]
- IC50 [1, 3]: 1.49 ± 0.33 µM
- EC50 (HIV-1 replication; [6]): > 100 µM
- CC50 at 24 h [2, 5]: > 100 µM

SMILES: CC(=O)c1ccc2c(c1)c(=O)c(C(=O)O)cn2Cc1ccc(F)cc1 [4d, 6-Acetyl-1-(4-fluorobenzyl)-4-oxo-1,4-dihydroquinoline-3-carboxylic Acid]
- IC50 [1, 3]: 16.3 ± 1.42 µM
- IC50 (HIV-1 IN): > 100 µM
- EC50 (HIV-1 replication; [4]): > 50 µM
- CC50 at 24 h [2, 5]: > 200 µM
- CC50 at 24 h ([2]; supplement CSV, read-out: CC50): > 50 µM

SMILES: O=C(O)c1cn(Cc2ccc(F)cc2)c2ccc([N+](=O)[O-])cc2c1=O [4e, 1-(4-Fluorobenzyl)-6-nitro-4-oxo-1,4-dihydroquinoline-3-carboxylic Acid]
- IC50 [1, 3]: 56 ± 4 µM

SMILES: CCOC(=O)c1cn(Cc2ccc(F)cc2)c2ccc(/C=C/C(=O)c3ccccc3)cc2c1=O [5k, (E)-Ethyl 1-(4-Fluorobenzyl)-4-oxo-6-(3-oxo-3-phenylprop-1-en-1-yl)-1,4-dihydroquinoline-3-carboxylate]
- IC50 [1, 3]: 15.3 ± 1.6 µM
- EC50 (HIV-1 replication; [4]): > 50 µM
- CC50 at 24 h [2, 5]: > 100 µM

SMILES: CCOC(=O)c1cn(Cc2ccc(F)cc2)c2ccc(Oc3ccccc3)cc2c1=O [5i, Ethyl 1-(4-Fluorobenzyl)-4-oxo-6-phenoxy-1,4-dihydroquinoline-3-carboxylate]
- IC50 [1, 3]: 45.5 ± 1.5 µM

SMILES: CC(C)c1ccc(O)c(=O)c(O)c1 [BTP, β-thujaplicinol, reference compound]
- IC50 [1, 3]: 0.19 ± 0.03 µM

SMILES: O=C(O)c1cn(Cc2ccc(F)cc2)c2ccc(OCc3ccc4ccccc4c3)cc2c1=O [4p, 1-(4-Fluorobenzyl)-6-(naphthalen-2-ylmethoxy)-4-oxo-1,4-dihydroquinoline-3-carboxylic Acid]
- IC50 ([1]; RH IC50 (uM), supplement CSV): 30.3 ± 1.69 µM
- IC50 [1, 3]: 30.3 ± 1.7 µM
- EC50 (HIV-1 replication; [4]): > 50 µM
- CC50 at 24 h [2, 5]: > 200 µM
- CC50 at 24 h ([2]; supplement CSV, read-out: CC50): > 50 µM

SMILES: CS(=O)(=O)c1ccc2c(c1)c(=O)c(C(=O)O)cn2Cc1ccc(F)cc1 [4f, 1-(4-Fluorobenzyl)-6-(methylsulfonyl)-4-oxo-1,4-dihydroquinoline-3-carboxylic Acid]
- IC50 [1, 3]: 100 µM

SMILES: O=C(O)c1cn(Cc2ccc(F)cc2)c2ccc(OCCCCc3ccccc3)cc2c1=O [4r, 1-(4-Fluorobenzyl)-4-oxo-6-(4-phenylbutoxy)-1,4-dihydroquinoline-3-carboxylic Acid]
- IC50 [1, 3]: 8.27 ± 0.45 µM
- EC50 (HIV-1 replication; [4]): > 50 µM
- CC50 at 24 h [2, 5]: > 200 µM
- CC50 at 24 h ([2]; supplement CSV, read-out: CC50): > 50 µM

SMILES: CCOC(=O)c1cn(Cc2ccc(F)cc2)c2ccc(OCc3ccc(-c4ccccc4)cc3)cc2c1=O [5s, Ethyl 6-([1,1′-Biphenyl]-4-ylmethoxy)-1-(4-fluorobenzyl)-4-oxo-1,4-dihydroquinoline-3-carboxylate]
- IC50 [1, 3]: > 100 µM

SMILES: CCOC(=O)c1cn(Cc2ccc(F)cc2)c2ccc(OCCCCc3ccccc3)cc2c1=O [5r, Ethyl 1-(4-Fluorobenzyl)-4-oxo-6-(4-phenylbutoxy)-1,4-dihydroquinoline-3-carboxylate]
- IC50 ([1]; RH IC50 (uM), supplement CSV): 28.4 ± 4.3 µM
- IC50 [1, 3]: 28.4 ± 4.3 µM
- EC50 (HIV-1 replication; [4]): > 16 µM
- CC50 at 24 h [2, 5]: > 200 µM
- CC50 at 24 h ([2]; supplement CSV, read-out: CC50): > 50 µM

SMILES: COc1ccc2c(c1)c(=O)c(C(=O)O)cn2Cc1ccc(F)cc1 [4h, 1-(4-Fluorobenzyl)-6-methoxy-4-oxo-1,4-dihydroquinoline-3-carboxylic Acid]
- anti-RH activity (IC50 ± SD) [1, 7]: no activity
- IC50 [1, 3]: > 100 µM

SMILES: CCOC(=O)/C=C/C(=O)/C=C/c1cccn1Cc1ccccc1Cl [compound 11, reference compound]
- IC50 [1, 3]: 7.5 ± 1.32 µM
- IC50 (HIV-1 IN): > 100 µM
- EC50 (HIV-1 replication; [6]): 2.9 ± 0.5 µM
- CC50 at 24 h [2, 5]: 68 ± 10 µM

SMILES: CCOC(=O)c1cn(Cc2ccc(F)cc2)c2ccc(OCc3ccc4c(c3)OCO4)cc2c1=O [5q, Ethyl 6-(Benzo[d][1,3]dioxol-5-ylmethoxy)-1-(4-fluorobenzyl)-4-oxo-1,4-dihydroquinoline-3-carboxylate]
- IC50 [1, 3]: 55.3 ± 1.7 µM

SMILES: O=C(O)c1cn(Cc2ccc(F)cc2)c2ccccc2c1=O [4a, 1-(4-Fluorobenzyl)-4-oxo-1,4-dihydroquinoline-3-carboxylic Acid]
- IC50 [1, 3]: > 100 µM

SMILES: CCOC(=O)c1cn(Cc2ccc(F)cc2)c2ccc(OC)cc2c1=O [5h, Ethyl 1-(4-Fluorobenzyl)-6-methoxy-4-oxo-1,4-dihydroquinoline-3-carboxylate]
- anti-RH activity (IC50 ± SD) [1, 7]: no activity
- IC50 [1, 3]: > 100 µM

SMILES: CCOC(=O)c1cn(Cc2ccc(F)cc2)c2ccc(OCc3ccccc3)cc2c1=O [5l, Ethyl 6-(Benzyloxy)-1-(4-fluorobenzyl)-4-oxo-1,4-dihydroquinoline-3-carboxylate]
- IC50 [1, 3]: 8 ± 1.6 µM
- EC50 (HIV-1 replication; [4]): > 100 µM
- CC50 at 24 h [2, 5]: > 100 µM

SMILES: N#Cc1ccc2c(c1)c(=O)c(C(=O)O)cn2Cc1ccc(F)cc1 [4b, 6-Cyano-1-(4-fluorobenzyl)-4-oxo-1,4-dihydroquinoline-3-carboxylic Acid]
- IC50 [1, 3]: > 100 µM
